rat_CLt and IC50 data for 32 compounds are collected here from patent US20170253607A1, “LONG-ACTING HIV PROTEASE INHIBITOR” (Shionogi & Co., Ltd., priority 2014, published 2017).

Data set [1] is described as follows: Evaluation of total body clearance (CLtot), intravenous administration. Format: in vivo, Sprague-Dawley (SD). Conditions: rat (SD), intravenous administration 0.5-10 mg/kg; CLtot = dose/AUC. The method, then: Dose: Intravenous administration with designated doses was selected. (Doses were changed depending on compounds.) • 0.5-10 mg/kg (n=2-3) Preparation of dosing formulation: The dosing solution was prepared by dissolving in an adequate solvent. Administration method: The dosing solution was injected into the tail vein by a syringe with a needle Blood sampling: The blood was collected at the scheduled time and obtained the plasma. Plasma concentrations of the compound were measured by LC/MS/MS. Statistical analysis: Area under the plasma concentration-time curve (AUC) of the compound was calculated by pharmacokinetic analysis software, WinNonlin™ and CLtot was calculated by dividing the dose by AUC.

For data set [2], the target named is HIV-1 PR (Human immunodeficiency virus type 1 group M subtype B, UniProt P04585). Briefly: HIV-protease inhibitory activity assay (FRET peptide substrate). Format: biochemical. Conditions: Test Example 1. In a few lines: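 Compounds were preincubated with HIV-1 PR (0.83 ng) at room temperature in pH 4.8 NaAc buffer (0.5 M NaCl, EDTA, DTT, Tween 20), then HiLyte Fluor 488/QXL 520 FRET peptide (2 μmol/L final) was added for 60 min. Fluorescence was read at 485/535 nm, and IC50 was fitted by four-parameter logistic regression.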

`COc1ccc(S(=O)(=O)N(CC(C)C)CC(O)C(Cc2ccc(NCc3ccc4scc(C(=O)Nc5sc6c(c5C(=O)O)CC(C)(C)CC6)c4c3)cc2)NC(=O)OC2COC3(C)OCCC23)cc1` (stereo not shown) [Compound I-440] came in with a rat_CLt in data set [1] of 0.871 mL/min/kg. For the same compound, the IC50 in data set [2] came to 4.5 nM.
Consider `COc1ccc(S(=O)(=O)N(CC(C)C)CC(O)C(Cc2ccc(N(C)Cc3cc(-c4sc5c(c4C(=O)O)CC(C)(C)CC5)co3)cc2)NC(=O)OC2COC3(C)OCCC23)cc1` (stereo not shown) [Compound I-448], for which, in data set [1], the rat_CLt is given as 5.28 mL/min/kg. This compound also gave a 50% inhibitory concentration (IC50) in data set [2] of 2.31 nM.
For `COc1ccc(S(=O)(=O)N(CC(C)C)CC(O)C(Cc2ccc(N(C)Cc3ccc(-c4sc5c(c4C(=O)O)CC(C)(C)CC5)cn3)cc2)NC(=O)OC2COC3(C)OCCC23)cc1` (stereo not shown) [Compound I-449], the rat_CLt in data set [1] was 11.1 mL/min/kg. Further, half-maximal inhibition in data set [2] (IC50) was put at 2.19 nM.
In the same order, the values of `COc1ccc(S(=O)(=O)N(CC(C)C)CC(O)C(Cc2ccc(N(C)Cc3ccc(-c4sc5c(c4C(=O)O)CC(C)(C)CC5)cc3)cc2)NC(=O)OC2COC3(C)OCCC23)cc1` (stereo not shown) [Compound I-450] are 3.7 mL/min/kg and 2.68 nM.
The compound `COc1ccc(S(=O)(=O)N(CC(C)C)CC(O)C(Cc2ccc(N(C)Cc3cc(C(F)(F)F)ccc3-c3sc4c(c3C(=O)O)CC(C)(C)CC4)cc2)NC(=O)OC2COC3(C)OCCC23)cc1` (stereo not shown) [Compound I-451] displayed a rat_CLt in data set [1] of 0.211 mL/min/kg. This compound showed an IC50 in data set [2] of 9.46 nM.
On to `COc1ccc(S(=O)(=O)N(CC(C)C)CC(O)C(Cc2ccc(NCc3cc4ccccc4c(-c4sc5c(c4C(=O)O)CC(C)(C)CC5)n3)cc2)NC(=O)OC2COC3(C)OCCC23)cc1` (stereo not shown) [Compound I-453], for which the rat_CLt in data set [1] is given as 0.593 mL/min/kg. In data set [2], this compound showed a 50% inhibitory concentration (IC50) of 2.63 nM.
In the same order, the values of `COc1ccc(S(=O)(=O)N(CC(C)C)CC(O)C(Cc2ccc(NCc3ccccc3-c3sc(N(C4CCCCC4)C4CCCCC4)nc3C(=O)O)cc2)NC(=O)OC2COC3(C)OCCC23)cc1` (stereo not shown) [Compound I-454] are 4.02 mL/min/kg and 5.51 nM.
Taken in the same sequence, the figures for `COc1ccc(S(=O)(=O)N(CC(C)C)CC(O)C(Cc2ccc(NCc3cc(N(C)C)ccc3-c3sc4c(c3C(=O)O)CC(C)(C)CC4)cc2)NC(=O)OC2COC3(C)OCCC23)cc1` (stereo not shown) [Compound I-455] were 0.236 mL/min/kg and 2.38 nM.
For the compound `CC(C)CN(CC(O)C(Cc1ccc(NCc2ccccc2-c2sc3c(c2C(=O)O)CC(C)(C)CC3)cc1)NC(=O)OC1COC2(C)OCCC12)S(=O)(=O)c1ccc2c(c1)OCO2` (stereo not shown) [Compound I-465], the rat_CLt in data set [1] came out at 0.675 mL/min/kg. The same compound displayed a concentration for half-maximal inhibition (IC50) in data set [2] of 2.97 nM.
As to `COc1ccc(S(=O)(=O)N(CC(C)C)CC(O)C(Cc2ccc(N(C)Cc3ccccc3-n3nc4c(c3C(=O)O)CC3(CCCC3)CC4)cc2)NC(=O)OC2COC3(C)OCCC23)cc1` (stereo not shown) [Compound I-466], the rat_CLt in data set [1] came to 1.75 mL/min/kg. This compound also registered a half-inhibitory concentration (IC50) in data set [2] of 4.28 nM.
Taken in the same sequence, the figures for `CC(C)CN(CC(O)C(Cc1ccc(NCc2ccccc2-c2sc3c(c2C(=O)O)CC(C)(C)CC3)cc1)NC(=O)OC1COC2(C)OCCC12)S(=O)(=O)c1ccc2ncsc2c1` (stereo not shown) [Compound I-467] were 2.36 mL/min/kg and 2.42 nM.
In data set [1], `COc1ccc(S(=O)(=O)N(CC(C)C)CC(O)C(Cc2ccc(N(C)Cc3ccccc3-c3sc(N(C4CCCCC4)C4CCCCC4)nc3C(=O)O)cc2)NC(=O)OC2COC3(C)OCCC23)cc1` (stereo not shown) [Compound I-471] returned a rat_CLt of 2.17 mL/min/kg. In data set [2], the IC50 was determined as 4.69 nM.
Taken in the same sequence, the figures for `COc1ccc(S(=O)(=O)N(CC(O)C(Cc2ccc(NCc3ccccc3-c3sc4c(c3C(=O)O)CC(C)(C)CC4)cc2)NC(=O)OC2COC3(C)OCCC23)CC(C)(C)C)cc1` (stereo not shown) [Compound I-473] were 1.22 mL/min/kg and 2.71 nM.
Take `COc1ccc(S(=O)(=O)N(CC2CCC2)CC(O)C(Cc2ccc(NCc3ccccc3-c3sc4c(c3C(=O)O)CC(C)(C)CC4)cc2)NC(=O)OC2COC3(C)OCCC23)cc1` (stereo not shown) [Compound I-474]: in data set [1], the rat_CLt is on record as 1.28 mL/min/kg. Also, in data set [2], the half-maximal inhibitory concentration (IC50) came to 2.14 nM.
Taken in the same sequence, the figures for `COc1ccc(S(=O)(=O)N(CCC(C)C)CC(O)C(Cc2ccc(NCc3ccccc3-c3sc4c(c3C(=O)O)CC(C)(C)CC4)cc2)NC(=O)OC2COC3(C)OCCC23)cc1` (stereo not shown) [Compound I-475] were 2.28 mL/min/kg and 2.42 nM.
For `COc1ccc(S(=O)(=O)N(CC(C)C)CC(O)C(Cc2ccc(NCc3cc(N4CCCC4)ccc3-c3sc4c(c3C(=O)O)CC(C)(C)CC4)cc2)NC(=O)OC2COC3(C)OCCC23)cc1` (stereo not shown) [Compound I-480], the rat_CLt in data set [1] was 0.0997 mL/min/kg. The compound further registered an IC50 in data set [2] of 2.36 nM.
The compound `COc1ccc(S(=O)(=O)N(CC(C)C)CC(O)C(Cc2ccc(NCc3ccc(C(=O)NCc4ccc(F)cc4)cc3-c3sc4c(c3C(=O)O)CC(C)(C)CC4)cc2)NC(=O)OC2COC3(C)OCCC23)cc1` (stereo not shown) [Compound I-481] came in with a rat_CLt in data set [1] of 3.29 mL/min/kg. This compound also yielded a 50% inhibitory concentration (IC50) in data set [2] of 3.72 nM.
In data set [1], `COc1ccc(S(=O)(=O)N(CC2CCCC2)CC(O)C(Cc2ccc(NCc3ccccc3-c3sc4c(c3C(=O)O)CC(C)(C)CC4)cc2)NC(=O)OC2COC3(C)OCCC23)cc1` (stereo not shown) [Compound I-483] yielded a rat_CLt of 2.41 mL/min/kg. The half-inhibitory concentration (IC50) in data set [2] turned out to be 2.75 nM.
`CC1(C)CCc2sc(-c3ccccc3CNc3ccc(CC(NC(=O)OC4COC5(C)OCCC45)C(O)CN(CC4CCCC4)S(=O)(=O)c4ccc5c(c4)OCO5)cc3)c(C(=O)O)c2C1` (stereo not shown) [Compound I-484] gave a rat_CLt in data set [1] of 1.58 mL/min/kg. In data set [2], this compound registered an IC50 of 2.43 nM.
Taken in the same sequence, the figures for `COc1ccc(S(=O)(=O)N(CC(C)C)CC(O)C(Cc2ccc(NCc3cccc(C(F)(F)F)c3-c3sc4c(c3C(=O)O)CC(C)(C)CC4)cc2)NC(=O)OC2COC3(C)OCCC23)cc1` (stereo not shown) [Compound I-485] were 0.45 mL/min/kg and 2.28 nM.
In the case of `COc1ccc(S(=O)(=O)N(CC(C)C)CC(O)C(Cc2ccc(NCc3ccc4nc(-c5sc6c(c5C(=O)O)CC(C)(C)CC6)sc4c3)cc2)NC(=O)OC2COC3(C)OCCC23)cc1` (stereo not shown) [Compound I-487], in data set [1], the rat_CLt turned out to be 3.16 mL/min/kg. In data set [2], this compound showed an IC50 of 3.03 nM.
Taken in the same sequence, the figures for `COc1ccc(S(=O)(=O)N(CC(C)C)CC(O)C(Cc2ccc(N(C)Cc3ccc(C)cc3-c3sc4c(c3C(=O)O)CC(C)(C)CC4)cc2)NC(=O)OC2COC3(C)OCCC23)cc1` (stereo not shown) [Compound I-488] were 0.501 mL/min/kg and 2.2 nM.
Taken in the same sequence, the figures for `COc1ccc(S(=O)(=O)N(CC(C)C)CC(O)C(Cc2ccc(N(C)Cc3ccc(OC)cc3-c3sc4c(c3C(=O)O)CC(C)(C)CC4)cc2)NC(=O)OC2COC3(C)OCCC23)cc1` (stereo not shown) [Compound I-490] were 0.88 mL/min/kg and 2.01 nM.
Consider `COc1ccc(S(=O)(=O)N(CC(C)C)CC(O)C(Cc2ccc(N(C)Cc3ccc(F)cc3-c3sc4c(c3C(=O)O)CC(C)(C)CC4)cc2)NC(=O)OC2COC3(C)OCCC23)cc1` (stereo not shown) [Compound I-491], for which, in data set [1], the rat_CLt was determined as 3.32 mL/min/kg. The half-maximal inhibitory concentration (IC50) in data set [2] was determined as 1.92 nM.
`COc1ccc(S(=O)(=O)N(CC(C)C)CC(O)C(Cc2ccc(N(C)Cc3occc3-c3sc4c(c3C(=O)O)CC(C)(C)CC4)cc2)NC(=O)OC2COC3(C)OCCC23)cc1` (stereo not shown) [Compound I-492]: the rat_CLt in data set [1] was 17.3 mL/min/kg. For the same compound, the IC50 in data set [2] is 1.84 nM.
As for `CC(C)CN(CC(O)C(Cc1ccc(NCc2ccccc2-c2sc3c(c2C(=O)O)CC(C)(C)CC3)cc1)NC(=O)OC1COC2(C)OCCC12)S(=O)(=O)c1ccc(OCF)cc1` (stereo not shown) [Compound I-507], the rat_CLt in data set [1] is on record as 1.61 mL/min/kg. The compound also registered an IC50 in data set [2] of 1.85 nM.
`COc1ccc(S(=O)(=O)N(CC(C)C)CC(O)C(Cc2ccc(N3CCC(Oc4cc5ccccc5cc4-c4sc5c(c4C(=O)O)CC(C)(C)CC5)C3)cc2)NC(=O)OC2COC3(C)OCCC23)cc1` (stereo not shown) [Compound I-509] yielded a rat_CLt in data set [1] of 0.377 mL/min/kg. The IC50 in data set [2] is 1.96 nM.
In the same order, the values of `COc1ccc(S(=O)(=O)N(CC(C)C)CC(O)C(Cc2ccc(N(C)Cc3cccc(-c4sc5c(c4C(=O)O)CC(C)(C)CC5)c3C)cc2)NC(=O)OC2COC3(C)OCCC23)cc1` (stereo not shown) [Compound I-510] are 1.08 mL/min/kg and 10.6 nM.
Turning to `CC1(C)CCc2sc(-c3ccccc3CNc3ccc(CC(NC(=O)OC4COC5(C)OCCC45)C(O)CN(CC4CCCC4)S(=O)(=O)c4ccc5ncsc5c4)cc3)c(C(=O)O)c2C1` (stereo not shown) [Compound I-513], in data set [1], the rat_CLt turned out to be 3.23 mL/min/kg. The IC50 in data set [2] was 1.76 nM.
Taken in the same sequence, the figures for `COc1ccc(S(=O)(=O)N(CC(C)C)CC(O)C(Cc2ccc(N3CCC(Oc4ccc(C(F)(F)F)cc4-c4sc5c(c4C(=O)O)CC(C)(C)CC5)C3)cc2)NC(=O)OC2COC3(C)OCCC23)cc1` (stereo not shown) [Compound I-514] were 3.01 mL/min/kg and 6.21 nM.
In data set [1], `COc1ccc(S(=O)(=O)N(CC(C)C)CC(O)C(Cc2ccc(N(C)CCOc3ccc(-c4sc5c(c4C(=O)O)CC(C)(C)CC5)c(C)c3)cc2)NC(=O)OC2COC3(C)OCCC23)cc1` (stereo not shown) [Compound I-519] yielded a rat_CLt of 0.429 mL/min/kg. Also, the half-inhibitory concentration (IC50) in data set [2] stood at 8.93 nM.
In turn, `COc1ccc(S(=O)(=O)N(CC(C)C)CC(O)C(Cc2ccc(N3CCC(c4ccccc4-c4sc5c(c4C(=O)O)CC(C)(C)CC5)C3)cc2)NC(=O)OC2COC3(C)OCCC23)cc1` (stereo not shown) [Compound I-522] displayed a rat_CLt in data set [1] of 0.144 mL/min/kg. The compound also returned a half-inhibitory concentration (IC50) in data set [2] of 13.6 nM.
